Experimental findings from article PMC10213937 (Frontiers in Pharmacology, 2023) are described below.

Data set [1] in a line: Stability in rat blood plasma (HPLC-MS/MS validation). Particulars: n = 5.
The nature of data set [2]: Plasma concentrations of ATO, metabolites and VOR in patients (HPLC-MS/MS). Type of data set: in vivo, human. Further details: Concentration in human blood samples: unit not given here. Particulars: for Concentration in human blood samples: n = 3; for Decrease of metabolite concentration in the VOR group: VOR + ATO vs ATO alone. An excerpt: The experimental procedures were approved by the Ethics Committee of Shenzhen Hospital of Southern Medical University, and conducted in accordance with the Declaration of Helsinki (No. NYSZYYEC20180017). Subjects were selected from patients seen in the Department of Critical Care Medicine of Shenzhen Hospital of Southern Medical University, who were diagnosed with fungal infections complicated by cardiovascular and cerebrovascular diseases. Written informed consent was obtained from three patients aged 20-55 years. […] All procedures followed the ethical principles of the World Medical Association (WMA) Declaration of Helsinki and were approved by the Medical Ethics Committee of Shenzhen Hospital. […] Prelude […] The injection volume is 2 μL.

Data set [3] has as its target ABCC2 (Homo sapiens, UniProt Q92887). The data set can be described thus: ATO uptake/transport in cell transport models, ABCC2. Type of data set: cell-based. The settings on record: ATO as substrate, MK571 20 μM.
In data set [4] the test system is CYP3A. The data set can be described thus: in vitro. The settings on record: rat, microsomes.
The nature of data set [5]: Pharmacokinetic interaction study in rats, Study II: VOR with or without ATO. Format: in vivo. The settings on record: male, Sprague-Dawley, rat, plasma, po, 20 mg/kg; for AUC(0-t): read-out: AUC0–24h. Here is the method:
Considering the clinical dosage of each drug and the dose equivalence between rats and human subjects, the corresponding quantity of drug powder was taken and resuspended with normal saline to prepare the drug-containing administration solution before treatment.
Treatment of the blood plasma: 40 µL of blood plasma was mixed with 10 µL of internal standard working solution (500 ng/ml) and acidified with 100 µL CH3COONa (0.1 mol/L). After the methyl tert-butyl (1 ml) was added, the mixture was vortexed for 5 min and centrifuged at 3000 r/min for 10 min at 4°C. The supernatant was removed into another 10 ml conical glass tube and dried in a rotary evaporator at 45°C. The residue was redissolved in 100 µL methanol and vortexed for 1 min, followed by HPLC-MS/MS analysis.
A Thermo Scientific™ TSQ Quantiva™ triple-stage quadrupole mass spectrometer (Thermo Fisher Scientific, MA, USA) equipped with a Thermo Scientific™ OptaMax™ NG ion source was used for the experiments. Prelude SPLC™ System samples, pretreatment technology (TurboFlow Eddy current purification), and a Thermo Scientific liquid chromatography system were also connected to the mass spectrometer. The HPLC conditions were as follows: column, Thermo Hypersil Gold C18 column (2.1 × 100 mm, 1.9 μm), column temperature maintained at 40 °C; TurboFlow column, Thermo Cyclone TM-P (0.5 × 50 mm) (ThermoFisher Scientific, MA, USA). The injection volume is 2 μL.
The analytes were quantified by selective reaction monitoring (SRM) that used heating electrospray ionization (H-ESI) in the positive ion mode. The main working parameters of the mass spectrometry were regulated as follows: ion spray voltage, 3 kV; capillary temperature, 350°C; sheath gas (N2) flow, 45 Arb; auxiliary gas (N2) flow, 10 Arb; and collision gas (Ar) flow, 2 mTorr. […] Thermo Scientific™ Pinpoint™ software version 1.3 (ThermoFisher Scientific, MA, USA) was used for data acquisition.
The blood samples (0.2 ml aliquots) were collected after taking a single dose of the test drug, which was the same as described in Study I. The blood samples were preserved on ice for further processing; after centrifuging at 4000 rpm for 5 min, the plasma samples were obtained and stored at −80°C until further analysis was performed. […] Non-compartmental pharmacokinetic analysis of plasma data was conducted using DAS (2.0 version, BioGuider Co., Shanghai, China) to calculate the parameters in the pharmacokinetic study.

For data set [6] the following is noted: rat.
For data set [7], the system named is CYP3A. The data set can be described thus: Inhibition by VOR of ATO metabolism in rat liver microsomes. Type of data set: in vitro ADME. The settings on record: pH 7.4, probe atorvastatin (ATO), 2 μM. Here is the method:
The incubations were performed in duplicate.
Background: Liver microsomes are vesicles of endoplasmic reticulum, rich in cytochrome P450 enzymes.

Setting [8] is: 24 h at 25℃, nominal 0.05 ng/mL.
The mark [9] stands for this setting: three freeze-thaw cycle (−80℃/25℃), nominal 0.05 ng/mL.
Where [10] appears, read: three freeze-thaw cycle (−80℃/25℃), nominal 5 ng/mL.
The mark [11] stands for this setting: three freeze-thaw cycle (−80℃/25℃), nominal 80 ng/mL.
Setting [12] is: ATO 20 mg alone, 0 h after taking ATO.
Where [13] appears, read: ATO 20 mg alone, 1 h after taking ATO.
Where [14] appears, read: ATO 20 mg alone, 2 h after taking ATO.
Setting [15] is: ATO 20 mg alone, 12 h after taking ATO.
[16] abbreviates: ATO 20 mg alone, 24 h after taking ATO.
[17] abbreviates: VOR + ATO (VOR iv 6 mg/kg day 1, 4 mg/kg days 2–3), 0 h after taking ATO.
Where [18] appears, read: first of four printed values (1 h by Table 1).
Where [19] appears, read: fourth of four printed values (24 h by Table 1).
The mark [20] stands for this setting: second of four printed values (2 h by Table 1).
Where [21] appears, read: third of four printed values (12 h by Table 1).
Where [22] appears, read: VOR + ATO, 1 h after taking ATO.
[23] abbreviates: VOR + ATO, 2 h after taking ATO.
The mark [24] stands for this setting: VOR + ATO, 12 h after taking ATO.
Where [25] appears, read: VOR + ATO, 24 h after taking ATO.
Setting [26] is: ATO 2 mg/kg + VOR 20 mg/kg oral.

Read-outs that look alike come from different tables or passages of the source.

Sequence of ABCC2 (Q92887 whole entry): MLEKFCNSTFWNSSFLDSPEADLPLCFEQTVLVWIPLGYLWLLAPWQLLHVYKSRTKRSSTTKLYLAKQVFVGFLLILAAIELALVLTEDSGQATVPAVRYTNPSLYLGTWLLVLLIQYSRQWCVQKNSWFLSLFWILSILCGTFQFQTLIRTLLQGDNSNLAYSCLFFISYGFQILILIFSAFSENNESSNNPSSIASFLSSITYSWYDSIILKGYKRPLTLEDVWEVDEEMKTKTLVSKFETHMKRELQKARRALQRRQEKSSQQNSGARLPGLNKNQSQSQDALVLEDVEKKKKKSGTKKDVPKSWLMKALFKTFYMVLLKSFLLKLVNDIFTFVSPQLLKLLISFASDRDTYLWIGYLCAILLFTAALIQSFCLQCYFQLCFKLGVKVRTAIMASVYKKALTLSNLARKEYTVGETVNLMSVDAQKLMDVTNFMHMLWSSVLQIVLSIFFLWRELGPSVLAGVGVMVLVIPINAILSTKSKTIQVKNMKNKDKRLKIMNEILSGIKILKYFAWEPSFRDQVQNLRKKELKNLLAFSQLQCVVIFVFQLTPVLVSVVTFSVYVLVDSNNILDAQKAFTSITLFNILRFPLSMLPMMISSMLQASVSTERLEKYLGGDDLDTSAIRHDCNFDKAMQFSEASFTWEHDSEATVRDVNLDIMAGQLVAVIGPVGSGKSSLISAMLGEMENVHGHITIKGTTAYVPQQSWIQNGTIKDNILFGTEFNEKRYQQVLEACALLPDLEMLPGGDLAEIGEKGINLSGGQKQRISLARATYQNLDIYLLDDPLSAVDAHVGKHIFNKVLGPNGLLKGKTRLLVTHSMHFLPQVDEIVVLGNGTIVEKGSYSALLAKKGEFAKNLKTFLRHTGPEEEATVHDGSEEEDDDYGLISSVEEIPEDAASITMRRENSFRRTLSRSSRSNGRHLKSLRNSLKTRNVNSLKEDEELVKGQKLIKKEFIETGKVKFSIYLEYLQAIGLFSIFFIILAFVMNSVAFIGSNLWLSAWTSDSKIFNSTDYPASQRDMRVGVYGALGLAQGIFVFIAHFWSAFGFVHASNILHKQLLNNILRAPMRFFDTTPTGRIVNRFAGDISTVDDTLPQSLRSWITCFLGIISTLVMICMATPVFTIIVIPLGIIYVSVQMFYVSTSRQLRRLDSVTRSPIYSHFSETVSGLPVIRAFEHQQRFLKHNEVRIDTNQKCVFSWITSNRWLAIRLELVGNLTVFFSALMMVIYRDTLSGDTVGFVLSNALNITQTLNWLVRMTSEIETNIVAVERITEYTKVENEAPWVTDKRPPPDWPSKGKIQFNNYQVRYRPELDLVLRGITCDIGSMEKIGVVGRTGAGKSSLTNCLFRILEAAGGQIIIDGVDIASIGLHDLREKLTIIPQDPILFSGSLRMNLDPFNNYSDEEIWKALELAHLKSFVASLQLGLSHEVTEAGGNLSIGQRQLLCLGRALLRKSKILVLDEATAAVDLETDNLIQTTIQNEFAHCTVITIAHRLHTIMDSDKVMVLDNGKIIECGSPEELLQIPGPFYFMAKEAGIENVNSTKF

Take `CC(C)c1c(C(=O)Nc2ccccc2O)c(-c2ccccc2)c(-c2ccc(F)cc2)n1CCC(O)CC(O)CC(=O)O` (centres unmarked) [2-Hydroxy-ATO, 2-hydroxy-ATO]: the “Stability, %RE” value in data set [1] (setting [8]) is listed as -0.35%; in data set [1] (24 h at 25℃, nominal 5 ng/mL), -8.25%; in data set [1] (24 h at 25℃, nominal 80 ng/mL) it was -6.25%; in data set [1] (setting [9]), -8.35%; in data set [1] (setting [10]) it was -1.35%; in data set [1] (setting [11]), -10.28%. Also, the “Stability, measured concentration (mean ± SD)” value (“Stability … (mean ± SD)” below) was 0.047 ± 0.005 ng/mL in data set [1] (setting [8]); 4.538 ± 0.424 ng/mL in data set [1] (24 h at 25℃, nominal 5 ng/mL); 76.114 ± 5.314 ng/mL in data set [1] (24 h at 25℃, nominal 80 ng/mL); 0.044 ± 0.004 ng/mL in data set [1] (setting [9]); 4.554 ± 0.568 ng/mL in data set [1] (setting [10]); 72.580 ± 4.221 ng/mL in data set [1] (setting [11]). In addition, the “Concentration in human blood samples” value in data set [2] (setting [12]) is recorded as 3.401 ± 1.028; in data set [2] (setting [13]), 21.602 ± 1.929; in data set [2] (setting [14]) it was 15.196 ± 1.779; in data set [2] (setting [15]), 10.106 ± 2.969; in data set [2] (setting [16]), 3.950 ± 1.867; in data set [2] (setting [17]) it was 4.239 + 2.160. For the same molecule, the “Concentration in human blood samples” value is 5.543 + 2.235 in data set [2] (setting [22]), 10.100 + 1.896 in data set [2] (setting [23]), 4.475 + 2.687 in data set [2] (setting [24]) and 2.200 + 1.184 in data set [2] (setting [25]). Also, the “Decrease of metabolite concentration in the VOR group” value was determined as 74.34% in data set [2] (setting [18]), 44.30% in data set [2] (setting [19]), 33.53% in data set [2] (setting [20]) and 55.72% in data set [2] (setting [21]).
Take `CC(C)c1c(C(=O)Nc2ccc(O)cc2)c(-c2ccccc2)c(-c2ccc(F)cc2)n1CC[C@@H](O)C[C@@H](O)CC(=O)O` [4-Hydroxy-ATO, 4-hydroxy-ATO]: the “Stability, %RE” value is on record as -7.78% in data set [1] (setting [8]); -2.31% in data set [1] (24 h at 25℃, nominal 5 ng/mL); -9.07% in data set [1] (24 h at 25℃, nominal 80 ng/mL); -9.87% in data set [1] (setting [9]); -1.25% in data set [1] (setting [10]); -9.69% in data set [1] (setting [11]). In addition, the “Stability … (mean ± SD)” value in data set [1] (setting [8]) is 0.045 ± 0.007 ng/mL; in data set [1] (24 h at 25℃, nominal 5 ng/mL), 4.625 ± 0.337 ng/mL; in data set [1] (24 h at 25℃, nominal 80 ng/mL), 73.581 ± 6.587 ng/mL; in data set [1] (setting [9]) it was 0.044 ± 0.005 ng/mL; in data set [1] (setting [10]), 4.501 ± 0.411 ng/mL; in data set [1] (setting [11]), 72.334 ± 7.338 ng/mL. Further, the “Concentration in human blood samples” value in data set [2] (setting [12]) is 4.073 ± 2.168; in data set [2] (setting [13]), 15.510 ± 1.283; in data set [2] (setting [14]), 14.783 ± 3.501; in data set [2] (setting [15]) it was 6.863 ± 1.586; in data set [2] (setting [16]), 6.103 ± 2.640; in data set [2] (setting [17]), 5.047 + 0.882. For the same molecule, the “Concentration in human blood samples” value is recorded as 8.150 + 1.219 in data set [2] (setting [22]), 6.537 + 0.304 in data set [2] (setting [23]), 3.717 + 0.807 in data set [2] (setting [24]) and 3.563 + 1.830 in data set [2] (setting [25]). Also, the “Decrease of metabolite concentration in the VOR group” value stood at 47.45% in data set [2] (setting [18]), 41.62% in data set [2] (setting [19]), 55.78% in data set [2] (setting [20]) and 45.85% in data set [2] (setting [21]).
`CN(C)C(=O)CCSC(SCCC(=O)O)c1cccc(/C=C/c2ccc3ccc(Cl)cc3n2)c1` (centres unmarked) [MK571]: the “Effect on the activity (efflux) of ABCC2” value in data set [3] is “reversed the efflux”.
In general, IC50 refers to the concentration that gives 50% inhibition. As usually defined, the AUC(0-inf) is total exposure, with the tail of the curve extrapolated. As usually defined, the Cmax is the peak of the concentration-time curve. As a reminder, the Tmax is the time from dosing to the highest level. By half-life is commonly meant the time in which the quantity being followed falls by half. The molecule `C[C@@H](c1ncncc1F)[C@](O)(Cn1cncn1)c1ccc(F)cc1F` [VOR, Voriconazole] returned a half-inhibitory concentration (IC50) in data set [4] of 49.8 µM. In addition, the values for the area under the curve AUC(0-inf) in data set [5] (setting [26]) and in data set [5] (NS + VOR 20 mg/kg oral) were 3280 ± 835 ng·h/mL and 3640 ± 798 ng·h/mL, respectively. Besides, the results for the highest concentration (Cmax) in data set [5] (setting [26]) and in data set [5] (NS + VOR 20 mg/kg oral) were 826 ± 166 ng/mL and 829 ± 246 ng/mL, respectively. Further, the Tmax in data set [5] (setting [26]) is 0.917 ± 0.204 h; in data set [5] (NS + VOR 20 mg/kg oral), 1.25 ± 0.612 h. Also, the figures for the half-life in data set [5] (setting [26]) and in data set [5] (NS + VOR 20 mg/kg oral) were 2.6 ± 0.419 h and 2.58 ± 0.317 h, respectively. For the same molecule, the AUC(0-t) in data set [5] (setting [26]) worked out at 3250 ± 862 ng·h/mL; in data set [5] (NS + VOR 20 mg/kg oral), 3630 ± 802 ng·h/mL. Moreover, the MRT inf in data set [5] (NS + VOR 20 mg/kg oral, read-out: MRT0-∞) came out at 3.53 ± 0.66 h. The “Effect on the activity (efflux) of ABCC2” value in data set [3] is reported as “no effect”. In addition, the “Concentration in human blood samples” value is given as 0.007 + 0.012 in data set [2] (setting [12]); 0.000 + 0.000 in data set [2] (setting [13]); 0.007 + 0.012 in data set [2] (setting [14]); 0.000 + 0.000 in data set [2] (setting [15]); 0.007 + 0.012 in data set [2] (setting [16]); 2.870 + 0.325 in data set [2] (setting [17]). Besides, the “Concentration in human blood samples” value is 2.673 + 0.465 in data set [2] (setting [22]), 2.563 + 0.122 in data set [2] (setting [23]), 2.780 + 0.317 in data set [2] (setting [24]) and 2.820 + 0.540 in data set [2] (setting [25]). The “Stability … (mean ± SD)” value in data set [6] (0.05 ng/mL) amounted to 0.045 ± 0.004 ng/mL; in data set [6] (5 ng/mL), 4.558 ± 0.318 ng/mL; in data set [6] (80 ng/mL), 75.238 ± 5.338 ng/mL; in data set [6] (24 h, 0.05 ng/mL) it was 0.048 ± 0.004 ng/mL; in data set [6] (24 h, 5 ng/mL) it was 4.962 ± 0.301 ng/mL; in data set [6] (24 h, 80 ng/mL), 79.264 ± 5.131 ng/mL. The molecule also gave a concentration for half-maximal inhibition (IC50) at 20 min in data set [7] of 45.9 µM.
